Assay [1] addresses T1, Aβ42 peptide (Homo sapiens, UniProt P05067).
T1 construct: Aβ42 peptide (10 μM; Kelowna Int’l Scientific Inc., New Taipei City, Taiwan); purchased Kelowna Int’l Scientific Inc., New Taipei City, Taiwan
The assay is described as follows: Thioflavin T aggregation assay. The format is biochemical. As to the method:
To form Aβ aggregation, Aβ42 peptide (10 μM; Kelowna Int’l Scientific Inc., New Taipei City, Taiwan) was incubated with tested compounds (5–20 μM) in 150 mM NaCl and 20 mM Tris-HCl (pH8.0) at 37 °C for 48 h. Thioflavin T (10 μM; Sigma-Aldrich) was added to the Aβ mixture and incubated at room temperature for 5 min. The fluorescence intensity was recorded at 420 nm excitation and 485 nm emission by an FLx800 microplate reader (Bio-Tek, Winooski, VT, USA). Half maximal effective concentration (EC50) was estimated by a method of interpolation.

In assay [2] the test system is Aβ-GFP SH-SY5Y cells. Kind of assay: Aβ-GFP fluorescence (Aβ-GFP folding reporter). The assay is classed as cell-based, Human. The note with it: 1–5 μM, normalized with cell number, day 8. As for the experimental part:
To induce neuronal differentiation, 2 × 10^4 Aβ-GFP SH-SY5Y cells were seeded on a 96-well plate with retinoic acid (10 µM; Sigma-Aldrich). Cells were pretreated with tested compounds (0.2–5 µM) on day 2 for 8 h and then with doxycycline (5 μg/mL) to induce Aβ-GFP expression. Medium containing retinoic acid compound and doxycycline was refreshed every 2 days for 6 days. Then, cells were stained with Hoechst 33342 (0.1 µg/mL; Sigma-Aldrich) at 37 °C for 30 min. Cell images were recorded at 482/35 nm excitation and 536/40 nm emission wavelengths (ImageXpres Micro Confocal High-Content Imaging System; Molecular Devices, Sunnyvale, CA, USA), and analyzed by MetaXpress (Molecular Devices).

The subject of assay [3] is Aβ-GFP SH-SY5Y cells. Kind of assay: Neurite outgrowth analysis. The following applies: 5 µM; for Neurite total length: induced untreated 23.9, uninduced 31.2; for Neurite length: untreated 25.3. The assay is classed as cell-based, Human. As to the method: Aβ-GFP SH-SY5Y cells (6 × 10^4 cells) were seeded on a 24-well plate with retinoic acid (10 µM) on day 1. Tested coumarins (5 µM) and doxycycline (5 μg/mL) were added on day 2, as described. On day 8, the cells were washed with phosphate-buffered saline (PBS) twice and fixed in 4% paraformaldehyde at 4 °C for 15 min. Cells were permeabilized with Triton X-100 (0.1%) for 10 min, blocked with bovine serum albumin (3%) for 20 min, and stained with anti-neuronal TUBB3 antibody (1:1000; Covance, Princeton, NJ, USA) at 4 °C overnight. The next day, cells were washed with PBS twice and stained by a secondary donkey anti-rabbit Alexa Fluor® 555 antibody (1:1000; Thermo Fisher Scientific) and 4′,6-diamidino-2-phenylindole (DAPI; 0.1 µg/mL; Sigma-Aldrich) at room temperature for 1 h. Neuronal images from at least 60 individual fields (150–250 neurons per field) per experiment were captured at excitation 531/40 nm and emission 593/40 nm wavelengths using an ImageXpress micro confocal high-content imaging system (Molecular Devices). Neurite total length (μm) and numbers of process (the number of primary neurites originated from the cell body of a neuron) and branch (the number of secondary neurites extended from primary neurites) were analyzed using a MetaXpress neurite outgrowth application module (Molecular Devices). For each sample, around 6000 cells were analyzed in each of three independent experiments.
(§1) Lentiviral short hairpin RNA (shRNA) targeting TRKB (TRCN0000002243, TRCN0000002245, and TRCN0000002246) and a negative-scrambled control (TRC2.Void) were obtained from the National RNAi Core Facility, IMB/GRC, Academia Sinica (Taipei, Taiwan). As described, cells were plated on 6- or 24-well plates, with retinoic acid added on day 1. Cells were infected with lentivirus (multiplicity of infection, 3 for each shRNA), with polybrene (8 µg/mL; Sigma-Aldrich) on the next day. Cells were pretreated with tested compounds (5 µM) for 8 h after changing medium, followed by doxycycline on day 3. Cells were collected for further analysis on day 9. The hairpin sequences of targeting shRNA were below: • TRCN0000002243: 5’-[…]ctcgag[…]-3’ • TRCN0000002245: 5’-[…]ctcgagATGTT-[…]-3’ • TRCN0000002246: 5’-[…]ctcgag[…]-3’ • TRC2.Void: 5’-[…]ctcgag[…]-3’

The subject of assay [4] is TRKB. The assay is described as follows: Western blot, TRKB and p-TRKB. The assay is classed as cell-based, Human. The note with it: 5 µM; for p-TRKB (Y516) protein level relative to uninduced cells (100%): induced untreated 40%; for p-TRKB (Y817) protein level relative to uninduced cells (100%): induced untreated 71%; for TRKB expression relative to uninduced cells (100%): scrambled shRNA-infected Aβ-expressing cells, untreated 80%. As to the method: (§2) Cellular proteins were prepared using a lysis buffer containing NaCl (150 mM), ethylene diamine tetraacetic acid (EDTA, 1 mM, pH8.0), Tris-HCl (50 mM, pH8.0), ethylene glycol tetraacetic acid (EGTA, 1 mM, pH8.0), sodium dodecyl sulfate (SDS, 0.1%), sodium deoxycholate (SD, 0.5%), Triton X-100 (1%), and protease (Sigma-Aldrich), and phosphatase (Abcam, Cambridge, MA, USA) inhibitor cocktails. After quantitation by protein assay kit (Bio-Rad, Hercules, CA, USA), 20 µg proteins were separated by SDS-polyacrylamide (10%) gel electrophoresis and transferred to polyvinylidene difluoride (PVDF) membranes (Sigma-Aldrich) using a Mini Trans-Blot cell (Bio-Rad). After blocking, the membrane was probed with anti-TRKB, anti-p-TRKB (Y516), anti-p-TRKB (Y817) (1:500; Cell Signaling, Danvers, MA, USA), anti-ERK, anti-p-ERK (T202/Y204) (1:1000; Cell Signaling), anti-AKT, anti-p-AKT (S473) (1:1000; Cell Signaling), anti-CREB, anti-p-CREB (S133) (1:1000; Millipore, Billerica, MA, USA), anti-BDNF, anti-BCL2 (1:500; Santa Cruz Biotechnology, Santa Cruz, CA, USA), anti-BAX (1:1000; Cell Signaling), anti-β-tubulin (1:500; Sigma-Aldrich), or anti-GAPDH (1:1000, MDBio, Taipei, Taiwan) antibody. The immune complexes were detected using goat anti-mouse or goat anti-rabbit IgG antibody conjugated with horseradish peroxidase (1:5000; GeneTex, Irvine, CA, USA) and chemiluminescent substrate (Millipore).
as §1
On the technique in general: A western blot detects proteins with antibodies after separation by electrophoresis.

Assay [5] concerns AKT. Kind of assay: Western blot, p-AKT. The assay is classed as cell-based, Human. The note with it: 5 µM; induced untreated 81%. As for the experimental part: as §2
Assay [6] concerns CREB. The assay is described as follows: Western blot, p-CREB. The format is cell-based, Human. The following applies: 5 µM; induced untreated 81%. As for the experimental part: as §2
For assay [7], the system named is BDNF. Kind of assay: Western blot, BDNF. The format is cell-based, Human. The following applies: 5 µM; for BDNF 14 kDa protein level relative to uninduced cells (100%): induced untreated 42%; for BDNF 32 kDa protein level relative to uninduced cells (100%): induced untreated 88%. As for the experimental part: as §2
A short description of assay [8]: 1,1-diphenyl-2-picrylhydrazyl radical scavenging. The note with it: data not shown.
Where [9] appears, read: TRKB shRNA-infected cells, untreated 2.9.
The mark [10] stands for this setting: induced untreated 1.8, uninduced 2.8.
Where [11] appears, read: induced untreated 3.3, uninduced 4.4.
The mark [12] stands for this setting: scrambled shRNA-infected cells, untreated 2.4.
[13] abbreviates: scrambled shRNA-infected cells, untreated 3.5.

T1 sequence (P05067 672-713 limits assumed): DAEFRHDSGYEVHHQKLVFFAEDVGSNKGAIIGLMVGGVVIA

Take `CCOC(=O)c1cc2c(O)cccc2oc1=O` [ZN014, ethyl 5-hydroxy-2-oxo-2H-chromene-3-carboxylate]: in assay [1] (compound 20 μM, thioflavin T assay), the “Aβ aggregation inhibition (in words)” value is “did not inhibit Aβ aggregation”. Besides, the “GFP fluorescence intensity relative to untreated cells (100%)” value in assay [2] is 111–119%. This molecule also had a Neurite process number in assay [3] (setting [9]) of 3.5. Besides, in assay [3] (setting [10]), the Neurite branch number is reported as 2.4–2.5. In assay [3] (setting [11]), the Neurite process number is 4.2–4.3. Moreover, in assay [3], the Neurite total length is on record as 29.1–29.3 μm. Further, the Neurite branch number in assay [3] (setting [12]) was 3.0–3.1. In addition, in assay [3] (setting [13]), the Neurite process number was 3.9–4.0. The Neurite length in assay [3] (scrambled shRNA-infected cells) is 30.7–30.9 µm. Moreover, in assay [4], the “p-TRKB (Y516) protein level relative to uninduced cells (100%)” value is reported as 92–100%, the “p-TRKB (Y817) protein level relative to uninduced cells (100%)” value is on record as 94–108% and the “TRKB expression relative to uninduced cells (100%)” value is given as 77–81%. Further, the “p-AKT (S473) protein level relative to uninduced cells (100%)” value in assay [5] is 91–110%. The “p-CREB (S133) protein level relative to uninduced cells (100%)” value in assay [6] is 98–101%. In addition, in assay [7], the “BDNF 14 kDa protein level relative to uninduced cells (100%)” value is 124–140% and the “BDNF 32 kDa protein level relative to uninduced cells (100%)” value is listed as 113–119%. In addition, the “1,1-diphenyl-2-picrylhydrazyl radical scavenging activity” value in assay [8] was “no 1,1-diphenyl-2-picrylhydrazyl radical scavenging activity”.

Regarding `O=C(/C=C/c1ccccc1O)c1c(O)c2ccccc2oc1=O` [ZN015, (E)-4-hydroxy-3-(3-(2-hydroxyphenyl)acryloyl)-2H-chromen-2-one], the “Thioflavin T fluorescence (Aβ aggregation)” value in assay [1] (compound 20 µM, Aβ42 10 μM, 37 °C 2 days, 621 AU without compound, 151 AU without incubation) is given as 403 AU. The “GFP fluorescence intensity relative to untreated cells (100%)” value in assay [2] is reported as 113–125%. The Neurite process number in assay [3] (setting [9]) is 3.5. Also, in assay [3] (setting [10]), the Neurite branch number is 2.4–2.5. Further, the Neurite process number in assay [3] (setting [11]) was 4.2–4.3. Further, the Neurite total length in assay [3] is on record as 29.1–29.3 μm. The Neurite branch number in assay [3] (setting [12]) is 3.0–3.1. In addition, the Neurite process number in assay [3] (setting [13]) is 3.9–4.0. Moreover, in assay [3] (scrambled shRNA-infected cells), the Neurite length is given as 30.7–30.9 µm. In addition, in assay [4], the “p-TRKB (Y516) protein level relative to uninduced cells (100%)” value is reported as 92–100%, the “p-TRKB (Y817) protein level relative to uninduced cells (100%)” value is reported as 94–108% and the “TRKB expression relative to uninduced cells (100%)” value is listed as 77–81%. In addition, in assay [5], the “p-AKT (S473) protein level relative to uninduced cells (100%)” value was 91–110%. For the same molecule, the “p-CREB (S133) protein level relative to uninduced cells (100%)” value in assay [6] was 98–101%. In assay [7], the “BDNF 14 kDa protein level relative to uninduced cells (100%)” value is listed as 124–140% and the “BDNF 32 kDa protein level relative to uninduced cells (100%)” value is listed as 113–119%. The “1,1-diphenyl-2-picrylhydrazyl radical scavenging activity” value in assay [8] was “no 1,1-diphenyl-2-picrylhydrazyl radical scavenging activity”.

The values are drawn from paper PMC8619673 (Cells, 2021).
